{
  "source": "patent US20160199500A1",
  "about": "“COMPOSITIONS COMPRISING VITAMIN B12 AND INTRINSIC FACTOR AND METHODS OF USE THEREOF” (Syracuse University, priority 2013, published 2016)",
  "key": {"[1]": {"details": "pre injection of 50 mg two minutes before an 125I-labeled conjugate, mice; cited from earlier work"}, "cubilin (CUBN)": {"molecular_target": "cubilin (CUBN) (Homo sapiens, UniProt O60494+P27352)", "sequence (O60494 36-3623, species assumed)": "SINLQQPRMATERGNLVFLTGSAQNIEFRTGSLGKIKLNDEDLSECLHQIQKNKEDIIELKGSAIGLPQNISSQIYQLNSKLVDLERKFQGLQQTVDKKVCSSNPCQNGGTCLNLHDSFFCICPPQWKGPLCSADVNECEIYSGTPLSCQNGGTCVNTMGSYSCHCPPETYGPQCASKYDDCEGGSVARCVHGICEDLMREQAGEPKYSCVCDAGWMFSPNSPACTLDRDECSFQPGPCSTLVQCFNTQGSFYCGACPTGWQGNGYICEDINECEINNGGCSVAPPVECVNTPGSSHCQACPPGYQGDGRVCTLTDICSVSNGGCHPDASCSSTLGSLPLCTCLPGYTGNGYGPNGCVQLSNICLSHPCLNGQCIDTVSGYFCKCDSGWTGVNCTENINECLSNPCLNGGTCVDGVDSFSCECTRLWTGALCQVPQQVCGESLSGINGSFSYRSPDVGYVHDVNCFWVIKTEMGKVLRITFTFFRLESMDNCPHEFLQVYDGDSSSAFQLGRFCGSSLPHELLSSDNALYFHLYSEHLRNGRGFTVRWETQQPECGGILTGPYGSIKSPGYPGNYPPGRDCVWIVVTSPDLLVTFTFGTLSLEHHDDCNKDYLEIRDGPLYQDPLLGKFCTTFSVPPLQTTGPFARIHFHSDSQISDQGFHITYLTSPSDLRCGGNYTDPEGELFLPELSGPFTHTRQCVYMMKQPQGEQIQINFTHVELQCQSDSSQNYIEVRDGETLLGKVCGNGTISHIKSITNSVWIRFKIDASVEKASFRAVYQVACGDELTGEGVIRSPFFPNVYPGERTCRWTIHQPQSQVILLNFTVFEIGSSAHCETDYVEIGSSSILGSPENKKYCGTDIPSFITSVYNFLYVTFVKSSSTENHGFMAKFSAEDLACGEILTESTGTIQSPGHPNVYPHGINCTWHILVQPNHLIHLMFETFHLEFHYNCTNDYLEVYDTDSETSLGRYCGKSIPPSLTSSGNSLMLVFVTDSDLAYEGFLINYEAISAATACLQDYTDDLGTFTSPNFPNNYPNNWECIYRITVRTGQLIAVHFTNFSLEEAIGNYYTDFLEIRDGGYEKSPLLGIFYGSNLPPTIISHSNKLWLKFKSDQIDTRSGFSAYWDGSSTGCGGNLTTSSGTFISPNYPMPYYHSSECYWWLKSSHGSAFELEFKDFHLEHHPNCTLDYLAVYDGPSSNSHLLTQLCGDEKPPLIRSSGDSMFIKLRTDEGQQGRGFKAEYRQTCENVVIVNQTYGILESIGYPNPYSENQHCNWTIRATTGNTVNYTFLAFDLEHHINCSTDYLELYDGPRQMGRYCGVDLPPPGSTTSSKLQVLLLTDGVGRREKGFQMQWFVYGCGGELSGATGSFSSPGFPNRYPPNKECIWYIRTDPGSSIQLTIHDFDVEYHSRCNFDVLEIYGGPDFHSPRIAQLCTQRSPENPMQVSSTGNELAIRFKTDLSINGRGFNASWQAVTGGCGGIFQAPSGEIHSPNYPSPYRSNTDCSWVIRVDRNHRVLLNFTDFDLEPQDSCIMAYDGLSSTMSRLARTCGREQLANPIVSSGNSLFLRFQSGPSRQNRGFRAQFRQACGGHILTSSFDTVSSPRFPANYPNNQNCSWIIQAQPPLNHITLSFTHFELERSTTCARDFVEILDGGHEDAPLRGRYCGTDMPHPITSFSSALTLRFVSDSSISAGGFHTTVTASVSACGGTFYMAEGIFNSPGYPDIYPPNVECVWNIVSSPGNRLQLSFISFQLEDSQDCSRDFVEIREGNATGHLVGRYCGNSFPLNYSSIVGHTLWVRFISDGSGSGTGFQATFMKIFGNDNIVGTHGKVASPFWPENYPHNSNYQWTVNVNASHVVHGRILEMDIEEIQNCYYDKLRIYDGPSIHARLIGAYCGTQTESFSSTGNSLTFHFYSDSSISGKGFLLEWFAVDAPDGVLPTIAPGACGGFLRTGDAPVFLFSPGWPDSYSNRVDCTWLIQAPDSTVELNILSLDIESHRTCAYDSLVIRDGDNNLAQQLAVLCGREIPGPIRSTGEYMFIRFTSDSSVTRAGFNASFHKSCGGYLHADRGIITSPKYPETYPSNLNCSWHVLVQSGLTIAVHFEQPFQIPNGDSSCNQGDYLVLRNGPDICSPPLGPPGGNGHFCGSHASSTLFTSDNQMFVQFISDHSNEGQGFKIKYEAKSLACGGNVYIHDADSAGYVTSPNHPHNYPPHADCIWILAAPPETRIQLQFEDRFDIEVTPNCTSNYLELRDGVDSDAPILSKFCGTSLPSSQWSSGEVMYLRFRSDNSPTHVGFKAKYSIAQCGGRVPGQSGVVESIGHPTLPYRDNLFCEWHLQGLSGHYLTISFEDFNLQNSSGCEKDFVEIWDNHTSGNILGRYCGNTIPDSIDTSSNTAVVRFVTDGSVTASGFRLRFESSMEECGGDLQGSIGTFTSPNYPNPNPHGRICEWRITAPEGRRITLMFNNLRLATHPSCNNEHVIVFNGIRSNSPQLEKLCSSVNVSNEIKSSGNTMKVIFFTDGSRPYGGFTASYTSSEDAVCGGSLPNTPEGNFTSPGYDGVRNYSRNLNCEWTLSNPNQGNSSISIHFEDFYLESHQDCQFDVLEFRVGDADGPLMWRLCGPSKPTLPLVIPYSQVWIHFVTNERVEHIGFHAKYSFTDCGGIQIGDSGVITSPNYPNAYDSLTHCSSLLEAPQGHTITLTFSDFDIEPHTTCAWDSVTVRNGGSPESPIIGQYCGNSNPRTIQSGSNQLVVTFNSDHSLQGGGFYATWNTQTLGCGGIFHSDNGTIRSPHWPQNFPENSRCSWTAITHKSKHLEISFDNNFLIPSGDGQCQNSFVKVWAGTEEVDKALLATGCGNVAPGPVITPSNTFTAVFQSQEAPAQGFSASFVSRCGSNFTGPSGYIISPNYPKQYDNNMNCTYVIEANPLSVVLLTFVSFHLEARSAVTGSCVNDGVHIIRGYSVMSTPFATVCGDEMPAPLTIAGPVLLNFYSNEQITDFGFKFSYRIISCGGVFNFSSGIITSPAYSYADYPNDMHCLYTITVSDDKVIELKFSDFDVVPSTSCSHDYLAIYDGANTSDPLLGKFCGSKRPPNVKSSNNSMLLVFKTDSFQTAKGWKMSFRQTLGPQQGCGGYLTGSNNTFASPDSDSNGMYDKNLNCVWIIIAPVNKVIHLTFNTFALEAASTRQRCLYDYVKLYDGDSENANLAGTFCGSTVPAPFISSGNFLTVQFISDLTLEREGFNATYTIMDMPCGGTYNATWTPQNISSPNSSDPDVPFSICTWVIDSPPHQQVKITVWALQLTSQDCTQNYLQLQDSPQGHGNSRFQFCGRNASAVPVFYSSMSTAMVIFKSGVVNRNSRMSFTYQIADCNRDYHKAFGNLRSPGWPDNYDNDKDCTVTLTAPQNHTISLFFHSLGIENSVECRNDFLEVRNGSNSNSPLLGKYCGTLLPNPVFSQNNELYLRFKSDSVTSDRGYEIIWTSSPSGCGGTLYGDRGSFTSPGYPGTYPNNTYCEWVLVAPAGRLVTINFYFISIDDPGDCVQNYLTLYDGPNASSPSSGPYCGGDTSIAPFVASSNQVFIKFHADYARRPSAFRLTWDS", "sequence (P27352 19-417, species assumed)": "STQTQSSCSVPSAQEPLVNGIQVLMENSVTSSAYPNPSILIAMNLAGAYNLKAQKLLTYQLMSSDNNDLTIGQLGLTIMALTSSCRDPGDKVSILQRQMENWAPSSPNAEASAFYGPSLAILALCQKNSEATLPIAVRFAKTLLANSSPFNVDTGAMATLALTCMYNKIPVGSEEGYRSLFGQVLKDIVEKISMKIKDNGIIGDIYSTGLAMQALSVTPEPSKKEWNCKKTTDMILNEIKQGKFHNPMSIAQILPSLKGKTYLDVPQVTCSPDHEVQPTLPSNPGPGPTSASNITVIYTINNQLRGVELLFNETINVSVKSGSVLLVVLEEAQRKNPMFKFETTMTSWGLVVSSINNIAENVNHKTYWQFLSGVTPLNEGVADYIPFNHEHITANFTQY", "details": "binds CUB domains 5-8, Ca2+ dependent; read-out: Kd of IF-B12 for cubilin; cited from earlier work"}, "[2]": {"tested_on": "BeWo cells (cubilin receptor)", "test": "Uptake and internalization in BeWo cells by confocal microscopy", "type": "cell-based", "details": "conjugates incubated with IF"}},
  "data": [
    {"compound": "NCCCC[C@H](N)C(=O)O", "note": "[1-lysine, L-lysine]", "values": [
      {"measurement": "decrease of kidney uptake", "setting": "[1]", "value": "approximately 95%"}
    ]},
    {"compound": "IF-B12: complex of intrinsic factor, a 50 kDa protein, bound to B12", "values": [
      {"measurement": "Kd", "setting": "cubilin (CUBN)", "value": "~5", "unit": "nM"}
    ]},
    {"compound": "IF405: intrinsic factor tagged with Alexa Fluor 405", "values": [
      {"measurement": "binding, uptake or internalization in BeWo cells", "setting": "[2]", "value": "shows uptake"}
    ]}
  ]
}
